Data: patent US12616698B2, “Methods for reducing liver fat and for treating fatty liver disorders” (Corcept Therapeutics Incorporated, priority 2021, dated 2026)
“Also recorded” adds a separate entry of the source.

How the values were obtained:
[1] = test system: patients with presumed NASH; assay: Example 6 study, dosing-regimen cohorts: liver fat content (MRI-PDFF) and markers; format: in vivo, human; conditions: for Mean reduction in LFC: Week 6 (FIG. 10)
Protocol: This study was a double-blind, multi-center, placebo-controlled, randomized 3-arm phase 2a study (NCT03823703) conducted to assess the safety and efficacy of miricorilant in reducing liver fat content (LFC) in patients with presumed NASH. Adult patients (18-75 years) with presumed NASH were randomized 1:1:1 to miricorilant 600 mg daily, miricorilant 900 mg daily, or placebo for 12 weeks. […] Abbreviations used in this Example and in the Figures include: ALP, alkaline phosphatase; ALT, alanine aminotransferase; AST, aspartate aminotransferase; ELF, enhanced liver fibrosis; LFC, liver fat content; NASH, non-alcoholic steatohepatitis; ULN, upper limit of normal; AUC, area under the concentration-time curve; Cmax, maximum concentration; EOT, end of treatment; GGT, gamma-glutamyltransferase; INR, international normalized ratio; MRI-PDFF, magnetic resonance imaging-proton density fat fraction; pt, patient; SD, standard deviation; ULN, upper limit of normal; Wk, week.
Key inclusion criteria included that the patients be adults between 18-75 years old; be presumed to suffer from NASH with fibrosis; have LFC as measured by MRI-PDFF≥8%; have levels of AST<5×ULN and ALT<5×ULN; and have eGFR>60 mL/min/1.73 m^2. Primary endpoints included relative change in LFC from baseline by MRI-PDFF. Secondary endpoints included change from baseline in AST, ALT, GGT, and change from baseline in ELF score.
Patients were divided into different cohorts and received different regimens of miricorilant. The cohorts included patients receiving 30 mg mircorilant once per day; patients receiving 50 mg mircorilant once per day; patients receiving 100 mg mircorilant once per day; patients receiving 150 mg mircorilant once per day; patients receiving 100 mg mircorilant on Mondays, Wednesdays, and Fridays; patients receiving 100 mg mircorilant on Mondays and Fridays; and patients receiving 200 mg mircorilant once per week. Patients receiving 100 mg mircorilant on Mondays and Fridays were termed “Cohort 6”.

[2] = test system: patients presumed to have NASH; assay: Phase 2a study: liver enzymes (ALT, AST), bilirubin, Hy's Law (eDISH plot); format: in vivo, human
Source text: A Phase 2a, randomized, double-blind, placebo-controlled study (ClinicalTrials.gov Identifier: NCT03823703) was begun to assess the efficacy of two dose levels of miricorilant versus placebo in reducing liver fat in patients who were presumed to have non-alcoholic steatohepatitis (NASH), that presumption based on blood tests and noninvasive measures. Written informed consent was obtained before initiating any study-mandated procedures. The full study was planned to enroll approximately 120 patients, randomized 1:1:1 to receive daily 900 mg miricorilant:600 mg miricorilant: matching placebo.
Other endpoints monitoring and assessment for safety for all study participants. Safety endpoints included the incidence of TEAEs, AEs, and SAEs; changes from Baseline in clinical laboratory tests (hematology and chemistry panels); changes from Baseline in physical examinations and vital sign measurements; changes from Baseline in ECG parameters.
Liver enzyme levels were measured in the patients.
Bilirubin and liver enzyme levels were measured in the patients at baseline. […] Bilirubin and ALT levels that combined are placed in the upper right quadrant of the graph, labelled “Hy's Law Quadrant”, indicate that the patient is at high risk of severe hepatocellular injury. The cholestasis quadrant is the location on the graph where bilirubin levels are greater than twice the ULN for bilirubin. The “Temple's Corollary” quadrant is the location on the graph where peak ALT levels are greater than 3 times the ULN for ALT, but bilirubin levels are less than twice the ULN for bilirubin.

SMILES: O=c1[nH]c(=O)c(Cc2cccc(C(F)(F)F)c2)c([C@H]2CC[C@H](c3ccccc3)CC2)[nH]1 [miricorilant, (E)-6-(4-Phenylcyclohexyl)-5-(3-trifluoromethylbenzyl)-1H-pyrimidine-2,4-dione]
- Lipid levels (LDL and VLDL) ([1]; 100 mg twice per week, Mondays and Fridays (FIG. 16)): reductions
- Glycemic markers ([1]; 100 mg twice per week, Mondays and Fridays (FIG. 17)): reductions
- Fibrosis markers ([1]; 100 mg twice per week, Mondays and Fridays (FIG. 18)): reductions
- LFC (MRI-PDFF) and liver enzyme levels (ALT and AST) ([1]; 100 mg twice per week, Mondays and Fridays, twelve weeks (FIG. 15)): reductions
- Reduction in liver fat ([1]; 100 mg twice weekly, over 12 weeks): −30%
- LFC mean % change from baseline ([1]; Cohort 6, miricorilant 100 mg twice weekly, week 12): −28.2%
- LFC mean % change from baseline ([1]; daily doses of miricorilant 50-150 mg, week 6): −22.3%
- Hepatic, lipid, and glycemic markers ([1]; miricorilant treatment, including 100 mg twice weekly): improvements; also recorded: improved
- Weight loss ([1]; patients whose ALT and/or AST levels remain below 3 times normal): significant
- Weight loss ([1]; patients whose ALT and/or AST levels rise above 3 times normal): even greater than for the other group
- Slope of LFC decline ([1]; responders with ALT>3×ULN): −8.76
- Slope of LFC decline ([1]; responders without ALT>3×ULN): −4.24
- Mean reduction in LFC ([1]; treatment responders with ALT>3×ULN): −52.6%
- Mean reduction in LFC ([1]; treatment responders without ALT>3×ULN): −25.5%
- Change in ALP or bilirubin levels ([2]; 600 or 900 mg daily): No significant change
- Hy's Law criteria (total bilirubin >2x ULN and ALT or AST >3x ULN) ([2]; 600 or 900 mg daily, eDISH plot FIG. 5): No patient in this study satisfied the criteria for Hy's Law; also recorded: no patient met Hy's Law criteria
- Transaminase elevations upon discontinuation of miricorilant ([2]; all patients): resolved rapidly
- AST Max ([2]; patient 208-4020, 900 mg, 30 days on treatment, baseline 45): 772 U/L
- ALT Max ([2]; patient 208-4020, 900 mg, 30 days on treatment, baseline 69): 1378 U/L
- AST Max ([2]; patient 211-4002, 900 mg, 31 days on treatment, baseline 32): 113 U/L
- ALT Max ([2]; patient 211-4002, 900 mg, 31 days on treatment, baseline 50): 386 U/L
- AST Max ([2]; patient 214-4007, 900 mg, 44 days on treatment, baseline 30): 376 U/L
- ALT Max ([2]; patient 214-4007, 900 mg, 44 days on treatment, baseline 38): 848 U/L
- AST Max ([2]; patient 233-4018, 600 mg, 34 days on treatment, baseline 26): 391 U/L
- ALT Max ([2]; patient 233-4018, 600 mg, 34 days on treatment, baseline 41): 955 U/L
- Effect on liver enzymes ALT and AST ([2]; patients with presumed NASH, 600 or 900 mg daily for 30-44 days): isolated rise; also recorded: increase
